Broadly, the pIC50 is −log10 of the IC50, conventionally taken in molar units. In general, IC50 refers to the point on the concentration scale where inhibition reaches its midpoint. A high value points to weaker potency in that assay.

Among the data in ChEMBL document CHEMBL6177970, “Semisynthetic Derivatives of Perovskone: Development of a Promising Class of Antiprotozoal Lead Compounds” (J Nat Prod, 2025) are IC50 and selectivity ratio values, retold here.

The structures appear in SMILES notation. pIC50: −log10 of the molar value.

The first data set concerns Trypanosoma cruzi. The data set is described as follows: Antiprotozoal activity against Trypanosoma cruzi Tulahuen C2C4 intracellular amastigotes measured after 96 hrs by inverted microscopy. The conditions noted are these: Tulahuen C2C4, 96 h. The class given is functional, organism-based.
With `CC(C)C1=C2OC(C)(C)[C@@H]3CC4[C@@H](C)[C@H](B(F)F)C[C@@]5(CC[C@H]6C(C)(C)CCC[C@]67C[C@]45[C@@]23O7)C1=O` (stereo partly drawn), the pIC50 is 4.92.
As for `CC(C)C1=C2OC(C)(C)[C@@H]3CC4[C@@H](C)[C@H](O)C[C@@]5(CC[C@H]6C(C)(C)CCC[C@]67C[C@]45[C@@]23O7)C1=O` (stereo partly drawn), the pIC50 was 4.72.
`O=C(Cn1ccnc1[N+](=O)[O-])NCc1ccccc1` [BENZNIDAZOLE] gave a negative logarithm of the IC50 (pIC50) of 5.58.
`CC1=C2C[C@H]3C(C)(C)OC4=C(C(C)C)C(=O)[C@@]5(C=C1)CC[C@H]1C(C)(C)CCC[C@]16C[C@]25[C@@]43O6` gave a pIC50 of 5.15.

Tested on in another data set: not listed separately
In words: Selectivity index, ratio of IC50 for cytotoxicity against rat myoblast L6 cells to IC50 for antileishmanial activity against axenically grown amastigotes Leishmania donovani MHOM-ET-67/L82. The class given is toxicity, cell-based. The conditions noted are these: read-out: Selectivity Index.
With `CC(C)C1=C2OC(C)(C)[C@@H]3CC4[C@@H](C)[C@H](B(F)F)C[C@@]5(CC[C@H]6C(C)(C)CCC[C@]67C[C@]45[C@@]23O7)C1=O` (stereo partly drawn), the selectivity ratio is 7.3.
For the molecule `CC(C)C1=C2OC(C)(C)[C@@H]3CC4[C@@H](C)[C@H](O)C[C@@]5(CC[C@H]6C(C)(C)CCC[C@]67C[C@]45[C@@]23O7)C1=O` (stereo partly drawn), the selectivity ratio is 3.7.
As to `CC1=C2C[C@H]3C(C)(C)OC4=C(C(C)C)C(=O)[C@@]5(C=C1)CC[C@H]1C(C)(C)CCC[C@]16C[C@]25[C@@]43O6`, the selectivity ratio worked out at 1.9.

Tested on in the next data set: not listed separately
The data set is described as follows: Selectivity index, ratio of IC50 for cytotoxicity against rat myoblast L6 cells to IC50 for antiprotozoal activity against Trypanosoma brucei rhodesiense STIB900 trypomastigotes. The conditions noted are these: read-out: Selectivity Index. The format is toxicity, cell-based.
Regarding `CC(C)C1=C2OC(C)(C)[C@@H]3CC4[C@@H](C)[C@H](B(F)F)C[C@@]5(CC[C@H]6C(C)(C)CCC[C@]67C[C@]45[C@@]23O7)C1=O` (stereo partly drawn), the selectivity ratio was 1.4.
Regarding `CC(C)C1=C2OC(C)(C)[C@@H]3CC4[C@@H](C)[C@H](O)C[C@@]5(CC[C@H]6C(C)(C)CCC[C@]67C[C@]45[C@@]23O7)C1=O` (stereo partly drawn), the selectivity ratio was found to be 0.9.
As for `CC1=C2C[C@H]3C(C)(C)OC4=C(C(C)C)C(=O)[C@@]5(C=C1)CC[C@H]1C(C)(C)CCC[C@]16C[C@]25[C@@]43O6`, the selectivity ratio worked out at 0.4.

The test system of another data set is Leishmania donovani. In words: Antileishmanial activity against axenically grown amastigotes Leishmania donovani MHOM-ET-67/L82 measured after 72 hrs by inverted microscopy. The format is functional, organism-based. The conditions noted are these: MHOM-ET-67/L82, 72 h.
For `CC(C)C1=C2OC(C)(C)[C@@H]3CC4[C@@H](C)[C@H](B(F)F)C[C@@]5(CC[C@H]6C(C)(C)CCC[C@]67C[C@]45[C@@]23O7)C1=O` (stereo partly drawn), the pIC50 was 5.32.
`CC(C)C1=C2OC(C)(C)[C@@H]3CC4[C@@H](C)[C@H](O)C[C@@]5(CC[C@H]6C(C)(C)CCC[C@]67C[C@]45[C@@]23O7)C1=O` (stereo partly drawn) had a pIC50 of 5.00.
`CC1=C2C[C@H]3C(C)(C)OC4=C(C(C)C)C(=O)[C@@]5(C=C1)CC[C@H]1C(C)(C)CCC[C@]16C[C@]25[C@@]43O6` gave a negative logarithm of the IC50 (pIC50) of 4.84.

In the next data set the test system is Trypanosoma brucei rhodesiense. In words: Antiprotozoal activity against Trypanosoma brucei rhodesiense STIB900 trypomastigotes measured after 72 to 74 hrs. The class given is functional, organism-based.
Conditions: not given
On to `CC(C)C1=C2OC(C)(C)[C@@H]3CC4[C@@H](C)[C@H](B(F)F)C[C@@]5(CC[C@H]6C(C)(C)CCC[C@]67C[C@]45[C@@]23O7)C1=O` (stereo partly drawn), for which the pIC50 was 4.61.
`CC(C)C1=C2OC(C)(C)[C@@H]3CC4[C@@H](C)[C@H](O)C[C@@]5(CC[C@H]6C(C)(C)CCC[C@]67C[C@]45[C@@]23O7)C1=O` (stereo partly drawn): the negative logarithm of the IC50 (pIC50) is 4.41.
Turning to `CC1=C2C[C@H]3C(C)(C)OC4=C(C(C)C)C(=O)[C@@]5(C=C1)CC[C@H]1C(C)(C)CCC[C@]16C[C@]25[C@@]43O6`, the negative-log IC50 (pIC50) is 4.23.

Tested on in the next data set: not listed separately
In words: Selectivity index, ratio of IC50 for cytotoxicity against rat myoblast L6 cells to IC50 for antiprotozoal activity against Trypanosoma cruzi Tulahuen C2C4 intracellular amastigotes. The format is toxicity, cell-based. The conditions noted are these: read-out: Selectivity Index.
As to `CC(C)C1=C2OC(C)(C)[C@@H]3CC4[C@@H](C)[C@H](B(F)F)C[C@@]5(CC[C@H]6C(C)(C)CCC[C@]67C[C@]45[C@@]23O7)C1=O` (stereo partly drawn), the selectivity ratio is 2.9.
As for `CC(C)C1=C2OC(C)(C)[C@@H]3CC4[C@@H](C)[C@H](O)C[C@@]5(CC[C@H]6C(C)(C)CCC[C@]67C[C@]45[C@@]23O7)C1=O` (stereo partly drawn), the selectivity ratio worked out at 1.9.
With `CC1=C2C[C@H]3C(C)(C)OC4=C(C(C)C)C(=O)[C@@]5(C=C1)CC[C@H]1C(C)(C)CCC[C@]16C[C@]25[C@@]43O6`, the selectivity ratio stood at 3.6.

Tested on in a further data set: not listed separately
The data set is described as follows: Selectivity index, ratio of IC50 for cytotoxicity against rat myoblast L6 cells to IC50 for antiplasmodial activity against Plasmodium falciparum NF54 intraerythrocytic forms. The format is toxicity, cell-based. The conditions noted are these: read-out: Selectivity Index.
In the case of `CC(C)C1=C2OC(C)(C)[C@@H]3CC4[C@@H](C)[C@H](B(F)F)C[C@@]5(CC[C@H]6C(C)(C)CCC[C@]67C[C@]45[C@@]23O7)C1=O` (stereo partly drawn), the selectivity ratio worked out at 43.8.
As for `CC(C)C1=C2OC(C)(C)[C@@H]3CC4[C@@H](C)[C@H](O)C[C@@]5(CC[C@H]6C(C)(C)CCC[C@]67C[C@]45[C@@]23O7)C1=O` (stereo partly drawn), the selectivity ratio was determined as 7.1.
Take `CC1=C2C[C@H]3C(C)(C)OC4=C(C(C)C)C(=O)[C@@]5(C=C1)CC[C@H]1C(C)(C)CCC[C@]16C[C@]25[C@@]43O6`: the selectivity ratio worked out at 843.

The test system of the next data set is Plasmodium falciparum. The data set is described as follows: Antiplasmodial activity against Plasmodium falciparum NF54 intraerythrocytic forms measured after 72 hrs by 3H-hypoxanthine based liquid scintillation counting analysis.
Conditions: not given
The class given is functional, organism-based.
`CC(C)C1=C2OC(C)(C)[C@@H]3CC4[C@@H](C)[C@H](B(F)F)C[C@@]5(CC[C@H]6C(C)(C)CCC[C@]67C[C@]45[C@@]23O7)C1=O` (stereo partly drawn): the negative logarithm of the IC50 (pIC50) is 6.10.
The same measure, in the same setting: in the case of `CC(C)C1=C2OC(C)(C)[C@@H]3CC4[C@@H](C)[C@H](O)C[C@@]5(CC[C@H]6C(C)(C)CCC[C@]67C[C@]45[C@@]23O7)C1=O` (stereo partly drawn) it was 5.29; in that of `CC1=C2C[C@H]3C(C)(C)OC4=C(C(C)C)C(=O)[C@@]5(C=C1)CC[C@H]1C(C)(C)CCC[C@]16C[C@]25[C@@]43O6`, 7.52.

Tested on in a further data set: not listed separately
The data set is described as follows: Cytotoxicity against rat myoblast L6 cells measured after 72 hrs by inverted microscopy. The class given is toxicity, cell-based.
Conditions: not given
`CC(C)C1=C2OC(C)(C)[C@@H]3CC4[C@@H](C)[C@H](B(F)F)C[C@@]5(CC[C@H]6C(C)(C)CCC[C@]67C[C@]45[C@@]23O7)C1=O` (stereo partly drawn) returned an IC50 at 72 h of 35 µM.
Turning to `CC(C)C1=C2OC(C)(C)[C@@H]3CC4[C@@H](C)[C@H](O)C[C@@]5(CC[C@H]6C(C)(C)CCC[C@]67C[C@]45[C@@]23O7)C1=O` (stereo partly drawn), the IC50 at 72 h came out at 36.7 µM.
Turning to `CC1=C2C[C@H]3C(C)(C)OC4=C(C(C)C)C(=O)[C@@]5(C=C1)CC[C@H]1C(C)(C)CCC[C@]16C[C@]25[C@@]43O6`, the IC50 at 72 h amounted to 26.3 µM.
